Earlier results on two compounds are cited in patent US5618928A, “Triazenyl-substituted phenyl pyrimidines and their use in therapy” (British Technology Group Limited, priority 1992, dated 1997).

The conditions of data set [1]: in combination with sulphamethoxazole, AIDS patients; cited from earlier work.
Data set [2] relates to dihydrofolate reductase (DHFR). The following applies: in words, background; cited from earlier work.

As to `COc1cc(Cc2cnc(N)nc2N)cc(OC)c1OC` [trimethoprim], in data set [1], the adverse reactions entry was “high percentage of adverse reactions in AIDS patients”.

For `COc1cc(NCc2ccc3nc(N)nc(N)c3c2C)cc(OC)c1OC` [trimetrexate], in data set [2], the potency result was “high potency” and the selectivity result is recorded as “poor selectivity”.
